From US20260191852A1, “COMBINATION OF SUBSTITUTED 2,4 DIAMINO-QUINOLINE COMPOUNDS AND MEK INHIBITORS FOR USE IN THE TREATMENT OF LIVER CANCERS” (GENFIT, priority 2022, published 2026)
Where a name gives a salt, the structure may show the parent alone. Read-outs that look alike come from different tables or passages of the source.

Legend:
[1] = system: intrahepatic cholangiocarcinoma cell line HuCCT1 (KRAS G12D); assay: HuCCT1 cell viability assay (CellTiter-Glo), single compounds, 72 hours; settings: for IC50: Homo sapiens, HuCCT-1, 72 h, read-out: Cell Viability assay IC50
Experimental: (§1) Cell culture: HuCCT1 cell line harboring KRAS G12D mutation (JCRB Cell Bank #JCRB0425) was maintained in RPMI medium (Dutscher #L0498-500) containing 1% penicillin streptomycin (Dutscher #P06-07100) and 10% fetal bovine serum (Dutscher #SV30160.03C) and were cultured at 37° C. with 5% CO2 in humidified cells incubator.
(§2) HuCCT1 cells were plated at 4.10^3 cells per well in Greiner Bio-one pClear® P96 well plates (Dutscher #655098) with 80 μL of culture media. […] Cell viability was assessed 72 hours post molecular treatment by CellTiter-Glo® luminescent cell viability assay (Promega #G7573) according to the manufacturer protocol and using an Infinity F200 Pro luminometer (Tecan). […] IC50 values were determined as the dose of compound required to reduce luminescent values to 50% of the reference signal obtained for untreated cell cultures. Raw data were analyzed using GraphPad Prism Software v9.4 (GraphPad Software, Inc. La Jolla, CA). For all experiments, analyzed data are shown as mean of triplicate and four independent experiments.

[2] = system: intrahepatic cholangiocarcinoma cell line HuCCT1 (KRAS G12D)
Experimental: as §1, §2

[3] = system: intrahepatic cholangiocarcinoma cell line HuCCT1 (KRAS G12D); assay: Combination effect of binary drug-drug associations on HuCCT1 cell viability, Loewe additivity model (SynergyFinder); assay type: cell-based; settings: growth inhibition of HuCCT1
Experimental: The HuCCT1 cell viability assay with binary drug-drug association was performed as described in example 1. The drug-drug binary associations of compounds 2-2+Trametinib and HCQ+Trametinib were tested in a checkerboard fashion in Greiner Bio-one pClear® 96-well plates (Dutscher #655098). The concentration ranges were selected nearby and surrounding the IC50 values of each individual compound. Compound 2-2 in combination with Trametinib was tested at 1.28 μM, 1.6 μM, 2.0 μM, 2.5 μM and 3.125 μM. HCQ [747-36-4] in combination with Trametinib was tested at 15 μM, 20 μM, 30 μM, 45 μM, 60 μM. […] The combination effects of both binary drug-drug association compound 2-2+Trametinib and HCQ+Trametinib were analyzed with two softwares: MacSynergy™ II (1) and SynergyFinder. […]
The combination effects of the drug-drug associations of compound 2-2+Trametinib (Table 2) and HCQ+Trametinib (Table 3) were evaluated according to the Loewe additivity model using SynergyFinder for their respective capacities to inhibit the growth of intra-hepatic cholangiocarcinoma cell line HuCCT1.
The HuCCT1 cell viability assay with binary drug-drug association was performed as described in example 1. […] The combination effects of both binary drug-drug association compound 2-2+Cobimetinib and HCQ+Cobimetinib were analyzed with two softwares: MacSynergy™ II (1) and SynergyFinder (2). […]

[4] = system: intrahepatic cholangiocarcinoma cell line HuCCT1 (KRAS G12D); assay: Combination effect of binary drug-drug associations on HuCCT1 cell viability, Bliss independence model (MacSynergy II); assay type: cell-based; settings: growth inhibition of HuCCT1
Experimental: The HuCCT1 cell viability assay with binary drug-drug association was performed as described in example 1. The drug-drug binary associations of compounds 2-2+Trametinib and HCQ+Trametinib were tested in a checkerboard fashion in Greiner Bio-one pClear® 96-well plates (Dutscher #655098). The concentration ranges were selected nearby and surrounding the IC50 values of each individual compound. Compound 2-2 in combination with Trametinib was tested at 1.28 μM, 1.6 μM, 2.0 μM, 2.5 μM and 3.125 μM. HCQ [747-36-4] in combination with Trametinib was tested at 15 μM, 20 μM, 30 μM, 45 μM, 60 μM. Trametinib (Selleckchem #S2673, [871700-17-3]) in combination with compound 2-2 or in combination with HCQ was tested in both cases at 0.005 μM, 0.03 μM, 6.0 μM, 15 μM, 30 μM, 60 μM, 90 μM. The combination effects of both binary drug-drug association compound 2-2+Trametinib and HCQ+Trametinib were analyzed with two softwares: MacSynergy™ II (1) and SynergyFinder. (2) MacSynergy™ II was used to analyze the combination effect according to the Bliss independence model which assumes probabilistic statistical independence between the combined compounds.(3) The main assumption of the Bliss independence principle is that two or more combined drugs act independently from each other with distinct mode of action. SynergyFinder was used to analyze the combination effect according to the Loewe additivity model which is based on its principle of a sham drug-drug combination which assumes no interaction when a compound is combined with itself.(4)
The combination effects of the drug-drug associations of compound 2-2+Trametinib and hydroxychloroquine+Trametinib were evaluated according to the Bliss independence model using MacSynergy™ II for their respective capacities to inhibit the growth of intrahepatic cholangiocarcinoma cell line HuCCT1 (Table 4).
The HuCCT1 cell viability assay with binary drug-drug association was performed as described in example 1. The binary drug-drug associations of compounds 2-2+Cobimetinib and HCQ+Cobimetinib were tested in a checkerboard fashion in Greiner Bio-one pClear® 96-well plates (Dutscher #655098). The concentration ranges were selected nearby and surrounding the IC50 values of each individual compound. Compound 2-2 in combination with Cobimetinib was tested at 1.28 μM, 1.6 μM, 2.0 μM, 2.5 μM and 3.125 μM. HCQ [747-36-4] in combination with Cobimetinib was tested at 15 μM, 20 μM, 30 μM, 45 μM, 60 μM. Cobimetinib (Selleckchem #S8041, [934660-93-2]) in combination with compound 2-2 or in combination with HCQ was tested in both cases at 0.10 μM, 1.0 μM, 10 μM, 30 μM, 60 μM, 80 μM, 100 μM. The combination effects of both binary drug-drug association compound 2-2+Cobimetinib and HCQ+Cobimetinib were analyzed with two softwares: MacSynergy™ II (1) and SynergyFinder (2). […]
The combination effects of the binary drug-drug associations of compound 2-2+Cobimetinib and hydroxychloroquine+Cobimetinib were evaluated according to the Bliss independence model using MacSynergy™ II for their respective capacities to inhibit the growth of intrahepatic cholangiocarcinoma cell line HuCCT1 (Table 7).

| SMILES | IC50 [1] [nM] | cytotoxic activity against HuCCT1 [2] | cytotoxic activity against HuCCT1 ([1]; HuCCT1, 72 hours) | combination effect when associated with Cobimetinib, Loewe model [3] | combination effect when associated with Cobimetinib, Bliss model [4] | combination effect when associated with Trametinib [4] | combination effect when associated with a MEK inhibitor (e.g., Trametinib, Cobimetinib), Bliss independence model [4] |
| --- | --- | --- | --- | --- | --- | --- | --- |
| O=C(c1ccc(F)c(F)c1Nc1ccc(I)cc1F)N1CC(O)([C@@H]2CCCCN2)C1 [Cobimetinib] | 1200 ± 800 | dose-response cytotoxic activity |  |  |  |  |  |
| CC(C)(C)NC1CCN(c2cc(NCc3ccc(Cl)cc3)nc3ccccc23)CC1 [Compound 2-2, 2-(4-chlorobenzylamino)-4-(4-tert-butylaminopiperidin-1-yl)-quinoline] | 2200 ± 200 |  | dose-response cytotoxic activity | overall additive effect | significant synergy combination effect | significant synergy combination effect | significant synergy combination effect |
| CCN(CCO)CCCC(C)Nc1ccnc2cc(Cl)ccc12 (stereo not drawn) [Hydroxychloroquine, hydroxychloroquine sulfate] | 27200 ± 1200 | dose-response cytotoxic activity |  | overall additive effect | minor synergy without significant impact in vivo | only an additive effect |  |
| CC(=O)Nc1cccc(-n2c(=O)n(C3CC3)c(=O)c3c(Nc4ccc(I)cc4F)n(C)c(=O)c(C)c32)c1 [Trametinib] | 310 ± 260 | dose-response cytotoxic activity |  |  |  |  |  |
